Molecular target: PCP binding sites of the NMDA receptor complex
Set-up: species or system rat
Conditions: for IC50: displacing (+)-[3H]MK-801 bound to rat brain homogenates, 0.5-1 nM radioligand, 100 μM glutamate, 30 μM glycine, 2 h room temperature, pH 7.4, mean of three experiments in duplicate ±SEM; for binding potency compared with corresponding S enantiomer: R enantiomers 1, 3, 5, 7 versus 2, 4, 6, 8; for Relative Potency (%): relative to PCP = 100%, displacing (+)-[3H]MK-801

SMILES	IC50	binding potency compared with corresponding S enantiomer (in words)	Relative Potency (%)	binding difference between enantiomeric pair of compounds 3 and 4 (compound 3 (R) versus compound 4 (S))	binding potency compared with PCP (in words)
N[C@]12CC=CC[C@H]1Cc1ccccc12 [Compound 1]	114 ± 14 nM	more potent in binding than the corresponding enantiomers of S stereochemistry	31%	–	–
N[C@@]12CC=CC[C@@H]1Cc1ccccc12 [Compound 2]	2240 ± 135 nM	–	2%	–	–
N[C@]12CCCC[C@H]1Cc1ccccc12 [Compound 3]	19 ± 1 nM	more potent in binding than the corresponding enantiomers of S stereochemistry	184%	73 fold	more potent in binding than PCP
N[C@@]12CCCC[C@@H]1Cc1ccccc12 [Compound 4]	1390 ± 49 nM	–	3%	–	–
CCN[C@]12CCCC[C@H]1Cc1ccccc12 [Compound 7]	68 ± 7 nM	more potent in binding than the corresponding enantiomers of S stereochemistry	51%	–	–
CCN[C@@]12CCCC[C@@H]1Cc1ccccc12 [Compound 8]	546 ± 40 nM	–	6%	–	–
c1ccc(C2(N3CCCCC3)CCCCC2)cc1 [PCP, phencyclidine, reference compound]	35 ± 1 nM	–	100%	–	–
c1csc(C2(N3CCCCC3)CCCCC2)c1 [TCP, 1-[1-(2-thienyl)-cyclohexyl]-piperidine, reference compound]	11 ± 1 nM	–	318%	–	–

Source: patent US5132313A, “Non-competitive NMDA receptor antagonists and methods for their use” (priority 1989, dated 1992)
